Assay [1] concerns the target T1, IRAK4 (Homo sapiens, UniProt Q9NWZ3).
T1 sequence (Q9NWZ3 1-460): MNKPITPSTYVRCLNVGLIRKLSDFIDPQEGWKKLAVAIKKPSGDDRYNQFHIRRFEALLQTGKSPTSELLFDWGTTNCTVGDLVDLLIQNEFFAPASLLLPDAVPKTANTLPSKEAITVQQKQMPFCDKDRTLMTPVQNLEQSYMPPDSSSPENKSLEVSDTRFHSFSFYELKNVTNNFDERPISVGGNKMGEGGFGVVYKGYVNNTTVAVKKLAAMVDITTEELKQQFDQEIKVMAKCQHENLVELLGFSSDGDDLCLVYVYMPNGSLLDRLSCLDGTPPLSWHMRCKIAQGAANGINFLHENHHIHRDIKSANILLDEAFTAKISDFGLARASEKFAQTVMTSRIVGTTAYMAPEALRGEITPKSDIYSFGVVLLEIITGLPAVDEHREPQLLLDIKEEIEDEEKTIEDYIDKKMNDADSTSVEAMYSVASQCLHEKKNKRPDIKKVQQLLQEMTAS
The experiment in a line: 2-hour 1 mM ATP IRAK4 Biochemical assay (as above, but with 100 pM IRAK4 and 1 mM ATP). Particulars: IRAK4 MSD BIOCHEMICAL (1 mM ATP) IC50 (μM), 100 pM IRAK4, 2 hours. The procedure, abridged: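 Run with 100 pM IRAK4 and 1 mM ATP for 2 hours, quenched with EDTA pH 8. Phosphorylated biotinylated peptide captured on streptavidin MSD plates and detected with anti-phosphothreonine antibody plus Sulfo-Tag secondary by electrochemiluminescence.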

Assay [2] concerns the target T1, IRAK4. Briefly: 2-hour 10 μM ATP Biochemical Assay (MesoScale Detection format; IRAK4 phosphorylation of biotin labeled IRAK1 activation loop peptide). In short, it runs like this:
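Kinase reaction run 2 h at 10 μM ATP with biotinylated IRAK1 activation-loop peptide, quenched with EDTA. Phospho-peptide captured on streptavidin MSD plates and detected with anti-phosphothreonine rabbit antibody plus Sulfo-Tag anti-rabbit electrochemiluminescence.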

[3] abbreviates: IRAK4 MSD BIOCHEMICAL (10 μM ATP) IC50 (μM), 1 nM IRAK4, 2 hours.

As a reminder, the IC50 is the concentration at which inhibition is half-maximal. On to `CCOc1cc2nc([C@H]3C[C@@H](O)C3)cn2cc1NC(=O)c1cccc(C(F)F)n1` [Example 97], for which the IC50 against IRAK4 [1] and on IRAK4 [2] (setting [3]) was 0.002 µM throughout.
On to `CCOc1cc2nc(CC(F)CO)cn2cc1NC(=O)c1cccc(C(F)F)n1` (stereo not drawn) [Example 99, 6-(difluoromethyl)-N-(7-ethoxy-2-(2-fluoro-3-hydroxypropyl)imidazo[1,2-a]pyridin-6-yl)picolinamide], for which the figures for the IC50 against IRAK4 [1] and at IRAK4 [2] (setting [3]) were 0.004 µM and 0.002 µM, respectively.
For `CCOc1cc2nc(C3CCN(C)C3=O)cn2cc1NC(=O)c1cccc(C(F)F)n1` (stereo not drawn) [Example 156, 6-(difluoromethyl)-N-(7-ethoxy-2-(1-methyl-2-oxopyrrolidin-3-yl)imidazo[1,2-a]pyridin-6-yl)picolinamide] the same measures were 0.003 µM and 0.001 µM.
For `O=C(Nc1cn2cc(C3CC3)nc2cc1OCC(F)(F)F)c1cccc(C(F)F)n1` [Example 26, N-(2-cyclopropyl-7-(2,2,2-trifluoroethoxy)imidazo[1,2-a]pyridin-6-yl)-6-(difluoromethyl)picolinamide] the same measures were 0.007 µM and 0.003 µM.
For `CC1(C)CC(Oc2cc3nc(C4CCOCC4)cn3cc2NC(=O)c2cccc(C(F)F)n2)CO1` (stereo not drawn) [Example 184, 6-(difluoromethyl)-N-(7-((5,5-dimethyltetrahydrofuran-3-yl)oxy)-2-(tetrahydro-2H-pyran-4-yl)imidazo[1,2-a]pyridin-6-yl)picolinamide] the same measures were 0.002 µM and 0.001 µM.
On to `O=C(Nc1cn2cc(C3CCOCC3)nc2cc1OC1CCOCC1)c1cccc(C(F)F)n1` [Example 185, 6-(difluoromethyl)-N-(2-(tetrahydro-2H-pyran-4-yl)-7-((tetrahydro-2H-pyran-4-yl)oxy)imidazo[1,2-a]pyridin-6-yl)picolinamide], for which the IC50 on IRAK4 [1] came out at 0.002 µM; at IRAK4 [2] (setting [3]), 0.001 µM.
Regarding `CCOc1nc2nc(C3CCOCC3)cn2cc1NC(=O)c1cccc(C(F)F)n1` [Example 372, 6-(difluoromethyl)-N-(7-ethoxy-2-(tetrahydro-2H-pyran-4-yl)imidazo[1,2-a]pyrimidin-6-yl)picolinamide], the half-maximal inhibitory concentration (IC50) at IRAK4 [1] was found to be 0.002 µM; at IRAK4 [2] (setting [3]) it was 0.001 µM.
With `CCOc1cc2nc(C34CC(C)(C3)C4)cn2cc1NC(=O)c1cccc(C(F)(F)F)n1` [Example 520, N-(7-ethoxy-2-(3-methylbicyclo[1.1.1]pentan-1-yl)imidazo[1,2-a]pyridin-6-yl)-6-(trifluoromethyl)picolinamide 2,2,2-trifluoroacetate], the IC50 at IRAK4 [1] was determined as 0.005 µM; on IRAK4 [2] (setting [3]), 0.001 µM.
On the same counts, the results for `CCOc1cc2nc(C3(CO)CC3)cn2cc1NC(=O)c1cccc(C(F)F)n1` [Example 98, 6-(difluoromethyl)-N-(7-ethoxy-2-(1-(hydroxymethyl)cyclopropyl)imidazo[1,2-a]pyridin-6-yl)picolinamide] are 0.018 µM and 0.008 µM.
For `CCOc1cc2nc(CC)cn2cc1NC(=O)c1cccc(C(F)(F)F)n1` [Example 1, N-(7-ethoxy-2-ethylimidazo[1,2-a]pyridin-6-yl)-6-(trifluoromethyl)picolinamide] the same measures were 0.011 µM and 0.003 µM.
On to `CCOc1cc2nc(C3CCOCC3)cn2cc1NC(=O)c1csc(C(F)(F)F)n1` [Example 231, N-(7-ethoxy-2-(tetrahydro-2H-pyran-4-yl)imidazo[1,2-a]pyridin-6-yl)-2-(trifluoromethyl)thiazole-4-carboxamide], for which the values for the IC50 against IRAK4 [1] and on IRAK4 [2] (setting [3]) were 0.007 µM and 0.001 µM, respectively.
Regarding `CCOc1cc2nc(C3CCN(C(C)=O)C3)cn2cc1NC(=O)c1cccc(C(F)(F)F)n1` (stereo not drawn) [Example 69, N-(2-(1-acetylpyrrolidin-3-yl)-7-ethoxyimidazo[1,2-a]pyridin-6-yl)-6-(trifluoromethyl)picolinamide], the half-maximal inhibitory concentration (IC50) against IRAK4 [1] and against IRAK4 [2] (setting [3]) was 0.001 µM throughout.
Regarding `O=C(Nc1cn2cc(C3CC3)nc2cc1OCC1CCC1)c1cccc(C(F)F)n1` [Example 5, N-(7-(cyclobutylmethoxy)-2-cyclopropylimidazo[1,2-a]pyridin-6-yl)-6-(difluoromethyl)picolinamide], the half-maximal inhibitory concentration (IC50) against IRAK4 [1] and against IRAK4 [2] (setting [3]) was 0.003 µM in each case.
On to `CCOc1cc2nc(CC)cn2cc1NC(=O)c1ccc2c(n1)CCC2` [Example 49, N-(7-ethoxy-2-ethylimidazo[1,2-a]pyridin-6-yl)-6,7-dihydro-5H-cyclopenta[b]pyridine-2-carboxamide], for which the IC50 against IRAK4 [1] was 0.019 µM; at IRAK4 [2] (setting [3]) it was 0.006 µM.
`CCOc1cc2nc(C3CN(C4COC4)C3)cn2cc1NC(=O)c1cccc(C(F)F)n1` [Example 79, 6-(difluoromethyl)-N-(7-ethoxy-2-(1-(oxetan-3-yl)azetidin-3-yl)imidazo[1,2-a]pyridin-6-yl)picolinamide]: the IC50 at IRAK4 [1] and against IRAK4 [2] (setting [3]) was 0.001 µM in each case.
Consider `CCOc1cc2nc(CCCOC)cn2cc1NC(=O)c1ccn(C(F)F)n1` [Example 88, 1-(difluoromethyl)-N-(7-ethoxy-2-(3-methoxypropyl)imidazo[1,2-a]pyridin-6-yl)-1H-pyrazole-3-carboxamide], for which the IC50 amounted to 0.004 µM on IRAK4 [1] and 0.003 µM against IRAK4 [2] (setting [3]).
Consider `CCOc1cc2nc(C3(OC)CC3)cn2cc1NC(=O)c1cccc(C(F)F)n1` [Example 128, 6-(difluoromethyl)-N-(7-ethoxy-2-(1-methoxycyclopropyl)imidazo[1,2-a]pyridin-6-yl)picolinamide], for which the IC50 on IRAK4 [1] stood at 0.007 µM; against IRAK4 [2] (setting [3]), 0.002 µM.
On the same counts, the results for `CCOc1cc2nc(C34CC(COC)(C3)C4)cn2cc1NC(=O)c1cccc(C(F)(F)F)n1` [Example 523, N-(7-ethoxy-2-(3-(methoxymethyl)bicyclo[1.1.1]pentan-1-yl)imidazo[1,2-a]pyridin-6-yl)-6-(trifluoromethyl)picolinamide] are 0.001 µM and 0.001 µM.
For `CCOc1cc2nc(CC3CCOC3)cn2cc1NC(=O)c1cccn(C)c1=O` (stereo not drawn) [Example 373, N-(7-ethoxy-2-((tetrahydrofuran-3-yl)methyl)imidazo[1,2-a]pyridin-6-yl)-1-methyl-2-oxo-1,2-dihydropyridine-3-carboxamide] the same measures were 0.028 µM and 0.008 µM.
With `N#CCOc1cc2nc(C3CCOCC3)cn2cc1NC(=O)c1cccc(C(F)F)n1` [Example 172, N-(7-(cyanomethoxy)-2-(tetrahydro-2H-pyran-4-yl)imidazo[1,2-a]pyridin-6-yl)-6-(difluoromethyl)picolinamide], the IC50 against IRAK4 [1] was determined as 0.004 µM; on IRAK4 [2] (setting [3]) it was 0.002 µM.
On the same counts, the results for `CCOc1cc2nc(C3CCOCC3)cn2cc1NC(=O)c1csc(C2CC2)n1` [Example 203, 2-cyclopropyl-N-(7-ethoxy-2-(tetrahydro-2H-pyran-4-yl)imidazo[1,2-a]pyridin-6-yl)thiazole-4-carboxamide] are 0.001 µM and 0.001 µM.
For `CCOc1cc2nc(C(F)F)cn2cc1NC(=O)c1cccc(C(F)(F)F)n1` [Example 57, N-(2-(difluoromethyl)-7-ethoxyimidazo[1,2-a]pyridin-6-yl)-6-(trifluoromethyl)picolinamide] the same measures were 0.008 µM and 0.003 µM.
For the molecule `CCOc1nc2nc(CCCOC)cn2cc1NC(=O)c1cccc(C(F)F)n1` [Example 242, 6-(difluoromethyl)-N-(7-ethoxy-2-(3-methoxypropyl)imidazo[1,2-a]pyrimidin-6-yl)picolinamide], the results for the IC50 against IRAK4 [1] and against IRAK4 [2] (setting [3]) were 0.003 µM and 0.001 µM, respectively.
Turning to `CCOc1nc2nc(C3CC3)cn2cc1NC(=O)c1cccc(C(F)F)n1` [Example 243, N-(2-cyclopropyl-7-ethoxyimidazo[1,2-a]pyrimidin-6-yl)-6-(difluoromethyl)picolinamide], the IC50 against IRAK4 [1] is 0.014 µM; against IRAK4 [2] (setting [3]), 0.003 µM.
In the case of `CCOc1nc2nc(CC3CCOC3)cn2cc1NC(=O)c1cccc(C(F)(F)F)n1` (single isomer, unassigned) [Example 94], the IC50 came out at 0.004 µM at IRAK4 [1] and 0.001 µM at IRAK4 [2] (read-out: IRAK4 MSD BIOCHEMICAL (10 μM ATP) IC50, 1 nM IRAK4, 2 hours).
As to `CCOc1cc2nc(C3CC(F)(F)C3)cn2cc1NC(=O)c1cccc(C(F)(F)F)n1` [Example 33, N-(2-(3,3-difluorocyclobutyl)-7-ethoxyimidazo[1,2-a]pyridin-6-yl)-6-(trifluoromethyl)picolinamide], the values for the half-inhibitory concentration (IC50) against IRAK4 [1] and at IRAK4 [2] (setting [3]) were 0.011 µM and 0.003 µM, respectively.
Consider `CCOc1cc2nc(C3CCCC(=O)N3C)cn2cc1NC(=O)c1cccc(C(F)F)n1` (stereo not drawn) [Example 246, 6-(difluoromethyl)-N-(7-ethoxy-2-(1-methyl-6-oxopiperidin-2-yl)imidazo[1,2-a]pyridin-6-yl)picolinamide], for which the IC50 against IRAK4 [1] and at IRAK4 [2] (setting [3]) was 0.001 µM each time.

The values are drawn from patent US20220089592A1, “IMIDAZO[1,2-A]PYRIDINYL DERIVATIVES AS IRAK4 INHIBITORS” (priority 2019, published 2022).
